Measured values as given in PMC2533354, “Highly specific inhibition of leukaemia virus membrane fusion by interaction of peptide antagonists with a conserved region of the coiled coil of envelope” (Retrovirology, 2008).
In brackets after ≈: the same amount, converted by molar mass. Where a SMILES comes first, the peptide text is derived from it.

Legend:
[1] = Relative peptide solubility by laser nephelometry; type: physicochemical; conditions: filtered PBS with 1.5 % DMSO, maximum solubility in aqueous solution, two-fold serial dilution from DMSO stock, 200 μl, 1 hr at room temperature, laser nephelometry (forward scattered light, NEPHELOstar), duplicate wells, in solution if reading up to 3-fold the DMSO control
Procedure: A two-fold serial dilution of peptide in DMSO was performed, and added in duplicate to 96-well microplates. Filtered PBS was added to give a total volume of 200 μl and a final DMSO concentration of 1.5 % in all wells. The plates were incubated at room temperature for 1 hr and the relative solubility of peptides was established by measuring forward scattered light using a NEPHELOstar laser-based microplate nephelometer (BMG LABTECH). Wells containing PBS and 1.5 % DMSO only were used as blanks. Data analysis was carried out using ActivityBase, and peptides giving readings up to and including 3-fold higher than the average reading for the DMSO control were considered to be in solution at the concentrations specified.

BLV envelope = target: T1, BLV envelope (Bovine leukemia virus, UniProt P51519); assay: Syncytium interference assay, BLV envelope-expressing HeLa effector cells; type: cell-based
T1 construct: A fragment encompassing the entire BLV envelope open reading frame; expressed in transfected cells; host or cells: HeLa (co-transfected with pRSV-Rev)
T1 sequence (P51519 302-515): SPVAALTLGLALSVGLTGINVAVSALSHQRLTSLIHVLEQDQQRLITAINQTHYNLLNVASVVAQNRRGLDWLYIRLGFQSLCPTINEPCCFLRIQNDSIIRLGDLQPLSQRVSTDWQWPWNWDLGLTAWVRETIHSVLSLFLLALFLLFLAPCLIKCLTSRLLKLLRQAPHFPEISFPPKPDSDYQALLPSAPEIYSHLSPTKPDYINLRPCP
Procedure: Briefly, HeLa cells for use as effector cells were transfected with the envelope expression vector pHTE-1 or with equal amounts of pCMV-BLVenv-RRE and pRSV-Rev using the Genejuice™ transfection reagent (Novagen) in accordance with the manufacturer's instructions. 24 h later, 3 × 10^5 effector cells were added to 7 × 10^5 untransfected HeLa target cells in six-well dishes (Nunc). Where appropriate, the co-culture was incubated in the presence of peptides at the concentrations specified. To assess the ability of the peptides to inhibit fusion induced by virally expressed BLV envelope, 2 × 10^5 BLV-infected FLK cells were used as effectors and added to 8 × 10^5 uninfected HeLa cells. After incubation at 37°C for 16 h, cells were washed twice with PBS and fixed in PBS + 3% paraformaldehyde. Assays were performed in triplicate and the number of syncytia (defined as multinucleated cells with 4 or more nuclei) from 10 low-power fields (LPF) per replicate was scored by light microscopy; some assays were stained using Giemsa. A syncytium formation value of 100% is defined as the number of syncytia formed in the absence of peptide but in the presence of 1.5% DMSO.

[2] = result in words, concentration not given (Figures 3B, 4A, 4C)
[3] = up to 20 μM, result in words (Figure 4D)

**Q.** For `CC[C@H](C)[C@H](NC(=O)[C@H](CCCNC(=N)N)NC(=O)[C@H](CC(C)C)NC(C)=O)C(=O)N[C@@H](CCC(N)=O)C(=O)N[C@@H](CC(N)=O)C(=O)N[C@@H](CC(=O)O)C(=O)N[C@@H](CO)C(=O)N[C@H](C(=O)N[C@H](C(=O)N[C@@H](CCCNC(=N)N)C(=O)N[C@@H](CC(C)C)C(=O)NCC(=O)N[C@@H](CC(=O)O)C(=O)N[C@@H](CC(C)C)C(=O)N[C@@H](CCC(N)=O)C(=O)N1CCC[C@H]1C(=O)N[C@@H](CC(C)C)C(=O)N[C@@H](CO)C(=O)N[C@@H](CCC(N)=O)C(=O)N[C@@H](CCCNC(=N)N)C(=O)N[C@H](C(=O)N[C@@H](CO)C(=O)N[C@H](C(=O)N[C@@H](CC(=O)O)C(=O)N[C@@H](Cc1c[nH]c2ccccc12)C(=O)N[C@@H](CCC(N)=O)C(N)=O)[C@@H](C)O)C(C)C)[C@@H](C)CC)[C@@H](C)CC` [P^BLV-ΔCCF] (Ac-LRIQNDSIIRLGDLQPLSQRVSTDWQ-NH2), which solubility kinetic at 1 h [1] is on record?
**A.** 11.2 µM (≈ 34.8 µg/mL)

**Q.** What about the inhibition at 30 µM (BLV envelope; HeLa, read-out: Inhibition of syncytium formation) of the same compound?
**A.** 40%

**Q.** What about the “Inhibition of BLV Env-induced membrane fusion” value (BLV envelope; peptide concentrations below 11 μM, where the peptide is soluble, result in words) of the same compound?
**A.** fails to inhibit membrane fusion

**Q.** What does the source list for `CC[C@H](C)[C@H](NC(=O)[C@H](CC(C)C)NC(=O)[C@H](CO)NC(=O)[C@H](Cc1c[nH]cn1)NC(=O)[C@@H](NC(=O)[C@H](CC(C)C)NC(=O)[C@H](CC(C)C)NC(=O)[C@H](CO)NC(=O)[C@@H](NC(=O)[C@H](Cc1ccc(O)cc1)NC(=O)[C@H](CC(N)=O)NC(=O)[C@H](CC(N)=O)NC(=O)[C@@H](NC(=O)[C@H](CCC(=O)O)NC(=O)[C@H](CCCNC(=N)N)NC(=O)[C@H](CC(=O)O)NC(=O)[C@H](Cc1c[nH]c2ccccc12)NC(=O)[C@H](CCC(=O)O)NC(=O)[C@H](CCSC)NC(=O)[C@H](Cc1c[nH]c2ccccc12)NC(=O)CNC(C)=O)[C@@H](C)CC)[C@@H](C)O)[C@@H](C)CC)C(=O)N[C@@H](CCC(=O)O)C(=O)N[C@@H](CCC(=O)O)C(=O)N[C@@H](CO)C(=O)N[C@@H](CCC(N)=O)C(=O)N[C@@H](CC(N)=O)C(=O)N[C@@H](CCC(N)=O)C(=O)N[C@@H](CCC(N)=O)C(=O)N[C@@H](CCC(=O)O)C(=O)N[C@@H](CCCCN)C(=O)N[C@@H](CC(N)=O)C(=O)N[C@@H](CCC(=O)O)C(=O)N[C@@H](CCC(N)=O)C(=O)N[C@@H](CCC(=O)O)C(=O)N[C@@H](CC(C)C)C(=O)N[C@@H](CC(C)C)C(N)=O` [Peptide C34, reference compound] (Ac-GWMEWDREINNYTSLLIHSLIEESQNQQEKNEQELL-NH2)?
**A.** solubility kinetic at 1 h [1]: > 90 µM; Inhibition of BLV Env-induced membrane fusion (BLV envelope; [2]): did not interfere

**Q.** For `CC[C@H](C)[C@H](NC(=O)[C@H](CCCNC(=N)N)NC(=O)[C@H](CC(C)C)NC(=O)[C@H](Cc1ccccc1)NC(=O)[C@H](CS)NC(=O)[C@H](CS)NC(C)=O)C(=O)N[C@@H](CCC(N)=O)C(=O)N[C@@H](CC(N)=O)C(=O)N[C@@H](CC(=O)O)C(=O)N[C@@H](CO)C(=O)N[C@H](C(=O)N[C@H](C(=O)N[C@@H](CCCNC(=N)N)C(=O)N[C@@H](C)C(=O)NCC(=O)N[C@@H](CC(=O)O)C(=O)N[C@@H](CC(C)C)C(=O)N[C@@H](CCC(N)=O)C(=O)N1CCC[C@H]1C(=O)N[C@@H](C)C(=O)N[C@@H](CO)C(=O)N[C@@H](CCC(N)=O)C(=O)N[C@@H](CCCNC(=N)N)C(=O)N[C@H](C(=O)N[C@@H](CO)C(=O)N[C@H](C(=O)N[C@@H](CC(=O)O)C(=O)N[C@@H](Cc1c[nH]c2ccccc12)C(=O)N[C@@H](CCC(N)=O)C(N)=O)[C@@H](C)O)C(C)C)[C@@H](C)CC)[C@@H](C)CC` [P^BLV-L404/410A] (Ac-CCFLRIQNDSIIRAGDLQPASQRVSTDWQ-NH2), which solubility kinetic at 1 h [1] is on record?
**A.** > 90 µM

**Q.** And the “Inhibition of BLV Env-induced membrane fusion” value (BLV envelope; [3])?
**A.** failed to display any fusion-blocking activity

**Q.** Which solubility kinetic at 1 h [1] does the source give for `CC[C@H](C)[C@H](NC(=O)[C@H](CCCNC(=N)N)NC(=O)[C@H](CC(C)C)NC(=O)[C@H](Cc1ccccc1)NC(=O)[C@H](CS)NC(=O)[C@H](CS)NC(C)=O)C(=O)N[C@@H](CCC(N)=O)C(=O)N[C@@H](CC(N)=O)C(=O)N[C@@H](CC(=O)O)C(=O)N[C@@H](CO)C(=O)N[C@H](C(=O)N[C@H](C(=O)N[C@@H](CCCNC(=N)N)C(=O)N[C@@H](CC(C)C)C(=O)NCC(=O)N[C@@H](CC(=O)O)C(=O)N[C@@H](CC(C)C)C(=O)N[C@@H](CCC(N)=O)C(=O)N1CCC[C@H]1C(=O)N[C@@H](CC(C)C)C(N)=O)[C@@H](C)CC)[C@@H](C)CC` [P^BLV-ΔC] (Ac-CCFLRIQNDSIIRLGDLQPL-NH2) here?
**A.** > 90 µM

**Q.** What about the “Inhibition of BLV Env-induced membrane fusion” value (BLV envelope; [2]) of the same compound?
**A.** lacked detectable inhibitory activity

**Q.** Which results are given for `CC[C@H](C)[C@H](NC(=O)[C@H](CO)NC(C)=O)C(=O)N[C@H](C(=O)N[C@@H](CCCNC(=N)N)C(=O)N[C@@H](CC(C)C)C(=O)NCC(=O)N[C@@H](CC(=O)O)C(=O)N[C@@H](CC(C)C)C(=O)N[C@@H](CCC(N)=O)C(=O)N1CCC[C@H]1C(=O)N[C@@H](CC(C)C)C(=O)N[C@@H](CO)C(=O)N[C@@H](CCC(N)=O)C(=O)N[C@@H](CCCNC(=N)N)C(=O)N[C@H](C(=O)N[C@@H](CO)C(=O)N[C@H](C(=O)N[C@@H](CC(=O)O)C(=O)N[C@@H](Cc1c[nH]c2ccccc12)C(=O)N[C@@H](CCC(N)=O)C(N)=O)[C@@H](C)O)C(C)C)[C@@H](C)CC` [P^BLV-ΔN] (Ac-SIIRLGDLQPLSQRVSTDWQ-NH2)?
**A.** solubility kinetic at 1 h [1]: > 90 µM; Inhibition of BLV Env-induced membrane fusion (BLV envelope; [2]): lacked detectable inhibitory activity

**Q.** For `CC[C@H](C)[C@H](NC(=O)[C@H](CO)NC(=O)[C@@H](NC(=O)[C@H](Cc1c[nH]cn1)NC(=O)[C@H](CO)NC(=O)[C@H](CC(N)=O)NC(=O)[C@@H](NC(=O)[C@@H](NC(=O)[C@H](CC(N)=O)NC(=O)[C@H](C)NC(=O)[C@H](Cc1ccccc1)NC(=O)[C@H](CS)NC(=O)[C@H](CS)NC(C)=O)[C@@H](C)CC)[C@@H](C)O)C(C)C)C(=O)N[C@@H](C)C(=O)N[C@@H](CCC(N)=O)C(=O)N[C@@H](CCC(=O)O)C(=O)N[C@@H](CCCNC(=N)N)C(=O)N1CCC[C@H]1C(=O)N1CCC[C@H]1C(=O)N[C@@H](C)C(=O)N[C@@H](CCC(=O)O)C(=O)N[C@@H](CC(N)=O)C(=O)N[C@@H](CCCNC(=N)N)C(=O)N[C@H](C(=O)N[C@@H](C)C(=O)N[C@H](C(=O)NCC(=O)N[C@@H](Cc1c[nH]c2ccccc12)C(=O)NCC(=O)N[C@@H](C)C(N)=O)[C@@H](C)O)C(C)C` [P^cr-400 L/A, reference compound] (Ac-CCFANITNSHVSIAQERPPAENRVATGWGA-NH2), which solubility kinetic at 1 h [1] is on record?
**A.** 45 µM (≈ 146 µg/mL)

**Q.** What about the “Inhibition of BLV Env-induced membrane fusion” value (BLV envelope; [2]) of the same compound?
**A.** did not interfere

**Q.** For `CC[C@H](C)[C@H](NC(=O)[C@H](CCCNC(=N)N)NC(=O)[C@H](C)NC(=O)[C@H](Cc1ccccc1)NC(=O)[C@H](CS)NC(=O)[C@H](CS)NC(C)=O)C(=O)N[C@@H](CCC(N)=O)C(=O)N[C@@H](CC(N)=O)C(=O)N[C@@H](CC(=O)O)C(=O)N[C@@H](CO)C(=O)N[C@H](C(=O)N[C@H](C(=O)N[C@@H](CCCNC(=N)N)C(=O)N[C@@H](C)C(=O)NCC(=O)N[C@@H](CC(=O)O)C(=O)N[C@@H](C)C(=O)N[C@@H](CCC(N)=O)C(=O)N1CCC[C@H]1C(=O)N[C@@H](C)C(=O)N[C@@H](CO)C(=O)N[C@@H](CCC(N)=O)C(=O)N[C@@H](CCCNC(=N)N)C(=O)N[C@H](C(=O)N[C@@H](CO)C(=O)N[C@H](C(=O)N[C@@H](CC(=O)O)C(=O)N[C@@H](Cc1c[nH]c2ccccc12)C(=O)N[C@@H](CCC(N)=O)C(N)=O)[C@@H](C)O)C(C)C)[C@@H](C)CC)[C@@H](C)CC` [P^BLV-L/A] (Ac-CCFARIQNDSIIRAGDAQPASQRVSTDWQ-NH2), which solubility kinetic at 1 h [1] is on record?
**A.** 45 µM (≈ 148 µg/mL)

**Q.** What about the “Inhibition of BLV Env-induced membrane fusion” value (BLV envelope; [3]) of the same compound?
**A.** did not exhibit any discernible inhibition
